PubChem BioAssay AID2060621 (Molecular Pharmacology Branch, DTP, NCI, 2025)
Values joined by “and” are separate entries in the source; they are usually repeats but may differ in a detail not shown here. Equal values may be shown once.

Test system: 324938-238-R-J1-PDC complex spheroids viability
Test: Anticancer human tumor 324938-238-R-J1-PDC patient-derived bladder carcinoma cell line growth inhibition [CLK]
Conditions: for viability, T/C: stronger effect = lower value
Excerpt: A high-throughput screen of multi-cell type tumor spheroids was designed to identify active combinations of […] and targeted small molecules. Complex spheroids include a stromal component modeled by human endothelial cells (HUVEC) and fibroblasts modeled by human mesenchymal stem cells (MSCs). The concentration ranges selected for each drug and investigational agent were based upon clinically achievable concentrations if the clinical Cmax of the agent was known.
Compounds. The drugs and investigational agents: cirtuvivint (SM08502; NSC835563), CC-671 (NSC850746), vemurafenib (NSC761431), tapotoclax (NSC804041), sotorasib (NSC818433), adagrasib (NSC831453), MRTX-1133 (NSC836407), BAY2416964 (NSC825713), copanlisib (NSC816437), inavolisib (NSC800729), abemaciclib (NSC768073), osimertinib (NSC779217), entinostat (NSC756642), eltanexor (KPT-8602, NSC794443), venetoclax (NSC766270), ceralasertib (NSC777638), bortezomib (NSC756655), olaparib (NSC753686), talazoparib (NSC767125), alisertib (NSC759677), peposertib (NSC802822), gemcitabine (NSC613327), 5-fluorouracil (NSC19893), SN-38 (NSC673596), oxaliplatin (NSC266046), paclitaxel (NSC125973), and doxorubicin (NSC123127), were obtained from the National Cancer Institute (NCI) Developmental Therapeutics Program Chemical Repository. The FDA-approved anticancer drug set is available from the Developmental Therapeutics Program at https://dtp.cancer.gov/organization/dscb/obtaining/available plates.htm. […] The stock solutions were prepared in dimethyl sulfoxide (DMSO, Sigma-Aldrich, St. Louis, MO, cat. D2650), except for the platinum complexes which were prepared in saline (Quality Biological, Gaithersburg, MD, cat. 114-055-101), at 800-fold the tested concentration and stored at -70 degrees C prior to their use. All drugs and investigational agents were tested over a range starting from a high concentration at or near the clinical Cmax and decreasing in half-log increments. If the clinical Cmax for an agent had not been determined, the highest concentration tested was 10 microM.
Cell Culture. All cells were maintained in an incubator at 37 degrees C and 5% CO2 with 95% humidity. The PDC lines were cultured according to standard operating procedures established by the NCI PDMR. Briefly, all PDCs were thawed and cultured in Matrigel-coated flasks prepared with a working solution of 1X Ham's F-12 nutrient mix, without supplementation (Invitrogen, Waltham, MA, cat. 11765054), 100 U/mL penicillin-streptomycin (Invitrogen, cat. 15140122), and 2.5% Matrigel (Corning Inc., Corning, NY, cat. 354248) for the first three passages. The 947758-054-R-J2-PDC line was cultured in 6B/Colon 1A media, which includes advanced DMEM/F-12 (Thermo Fisher Scientific, cat. 12634028), 10 mM HEPES (Thermo Fisher Scientific, cat. 15630080), 1X GlutaMAX supplement (Thermo Fisher Scientific, cat. 35050061), 0.1 mg/mL primocin (InvivoGen, cat. ant-pm-2), 10% defined fetal bovine serum, heat inactivated (HyClone Laboratories Inc., cat. SH30070.03HI), 1.25 mM N-Acetyl-L-cysteine (Sigma-Aldrich, cat. A9165), 10 mM nicotinamide (Sigma-Aldrich, cat. N0636), 1X B-27 supplement (Thermo Fisher Scientific, cat. 17504044), 1X N-2 supplement (Thermo Fisher Scientific, cat. 17502048), and 10 microM Y-27632 dihydrochloride (Tocris Bioscience, cat. 1254). The 876862-298-R-J1-PDC was cultured in 6E media, which includes all 6B/Colon 1A media components plus 50% L-WRN conditioned media (ATCC, cat. CRL-3276), 50 ng/mL recombinant human EGF recombinant protein (hEGF; Thermo Fisher Scientific, cat. PHG0311), 10 ng/mL recombinant human fibroblast growth factor 10 (hGFG-10; PeproTech, cat. 100-26), 1 ng/mL recombinant human fibroblast growth factor 2 (hFGF-2; PeproTech, cat. 100-18B), and 1 µM prostaglandin E2 (PGE2; Tocris, cat. 2296). The 227483-062-R1-J1-PDC line was cultured in Panc media, containing all 6E components except hFGF-2, with the addition of 500 nM SB-431542 (Selleckchem, cat. S1067) and 10 nM gastrin (Tocris, cat. 3006). […]
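Also: viability read after seven days of drug exposure.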
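For viability, T/C in this document: 100% = DMSO vehicle control wells.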

IC50 (curve of compound) | SMILES | viability, T/C (compound 0.0316 µM) | viability, T/C (compound 0.1 µM) | viability, T/C (compound 0.316 µM) | viability, T/C (compound 1 µM) | viability, T/C (compound 3.16 µM) | viability, T/C (compound 10 µM) | also measured
2260 nM and 3580 nM | C=C(F)C(=O)N1CCN(c2nc(OCC3CCCN3C)nc3c2CCN(c2cccc4cccc(Cl)c24)C3)CC1CC#N (centres undefined) | 79.2% and 88% | 88.8% and 85.7% | 89.3% and 88% | 85.3% and 92.6% | 35.5% and 55.8% | 0.27% and 1.96% | –
1.23 nM and 1.07 nM | CC(C)CC(NC(=O)C(Cc1ccccc1)NC(=O)c1cnccn1)B(O)O (centres undefined) | – | – | – | – | – | – | viability, T/C (compound 0.000949 µM): 63.7% and 55.5%; viability, T/C (compound 0.003 µM): 2.77% and 1.54%; viability, T/C (compound 0.00949 µM): 0.22% and 0.18%; viability, T/C (compound 0.03 µM): 0.44% and 0.2%; viability, T/C (compound 0.0949 µM): 0.18% and 0.12%; viability, T/C (compound 0.3 µM): 0.35% and 0.13%
91 nM and 128 nM | CC(Nc1ccc2c(c1)OCCn1cc(N3C(=O)OCC3C(F)F)nc1-2)C(N)=O (centres undefined) | 67.9% and 69% | 49.2% and 55% | 32% and 34.8% | 25% and 29.9% | 20.4% and 24.6% | 10.8% and 12.4% | –
1780 nM and 1440 nM | CC1COCCN1c1cc(C2(S(C)(=N)=O)CC2)nc(-c2ccnc3[nH]ccc23)n1 (centres undefined) | 85.2% and 72.7% | 86.7% and 79% | 73.1% and 77.7% | 68.5% and 59.5% | 33.5% and 27.7% | 14.9% and 13% | –
> 10000 nM and 8670 nM | CCCS(=O)(=O)Nc1ccc(F)c(C(=O)c2c[nH]c3ncc(-c4ccc(Cl)cc4)cc23)c1F | 80.8% and 83% | 96.9% and 88.4% | 102% and 90.1% | 115% and 101% | 111% and 94.9% | 55% and 44.1% | –
59.4 nM and 60.2 nM | CCN1CCN(Cc2ccc(Nc3ncc(F)c(-c4cc(F)c5nc(C)n(C(C)C)c5c4)n3)nc2)CC1 | 60% and 54.8% | 41.8% and 48.6% | 37% and 36.6% | 36.5% and 46.5% | – | – | viability, T/C (compound 0.00316 µM): 74.7% and 81.3%; viability, T/C (compound 0.01 µM): 69.6% and 74.1%
< 3.16 nM | CCc1c2c(nc3ccc(O)cc13)-c1cc3c(c(=O)n1C2)COC(=O)[C@]3(O)CC | 10.7% and 11.6% | 10.8% and 13.9% | 7.67% and 11.4% | 2.3% and 1.78% | – | – | viability, T/C (compound 0.00316 µM): 14.5% and 16.4%; viability, T/C (compound 0.01 µM): 10.3% and 12.2%
227 nM and 160 nM | COC1C=CCC(C)C(C)S(=O)(=O)NC(=O)c2ccc3c(c2)N(CC2CCC21)CC1(CCCc2cc(Cl)ccc21)CO3 (centres undefined) | 73.8% and 71.3% | 78.3% and 65.3% | 39.4% and 28.4% | 21% and 21.4% | 17.9% and 14.6% | 10.5% and 7.78% | –
9.79 nM and 11.5 nM | COc1c(OCCCN2CCOCC2)ccc2c3n(c(=NC(=O)c4cnc(N)nc4)nc12)CCN3 | 30.7% and 33.4% | 15.3% and 19% | 4.22% and 7.44% | 0.44% and 1.03% | – | – | viability, T/C (compound 0.00316 µM): 64.9% and 69.6%; viability, T/C (compound 0.01 µM): 49.7% and 52.5%
9.12 nM and 11.8 nM | Cn1ncnc1[C@H]1c2n[nH]c(=O)c3cc(F)cc(c23)N[C@@H]1c1ccc(F)cc1 | 37.4% and 33.3% | 28.4% and 24.7% | – | – | – | – | viability, T/C (compound 0.000316 µM): 84.5% and 92.7%; viability, T/C (compound 0.001 µM): 78.8% and 76.2%; viability, T/C (compound 0.00316 µM): 60% and 68.3%; viability, T/C (compound 0.01 µM): 50% and 55.5%
4350 nM and 4650 nM | O=C(c1cc(Cc2n[nH]c(=O)c3ccccc23)ccc1F)N1CCN(C(=O)C2CC2)CC1 | 73.8% and 84.1% | 75.1% and 88.4% | 71.4% and 72.4% | 83.3% and 73.8% | 57% and 60.5% | 31.8% and 31.7% | –
159 nM and 223 nM | O=c1[nH]cc(F)c(=O)[nH]1 | 83.8% and 80.7% | 66.9% and 79.9% | 24.9% and 37% | 19.4% and 26% | 16.1% and 20.8% | 16.1% and 20.9% | –

Continued, compound first:

SMILES | IC50 (curve of compound) | viability, T/C (compound 0.0316 µM) | viability, T/C (compound 0.1 µM) | viability, T/C (compound 0.316 µM) | viability, T/C (compound 1 µM) | viability, T/C (compound 3.16 µM) | viability, T/C (compound 10 µM) | also measured
C#Cc1c(F)ccc2cc(O)cc(-c3ncc4c(N5CC6CCC(C5)N6)nc(OCC56CCCN5CC(F)C6)nc4c3F)c12 (centres undefined) | 2920 nM and 1470 nM | 80% and 86.4% | 69.2% and 79.7% | 56.7% and 70% | 64.9% and 53.9% | 48.4% and 41.9% | 41.9% and 38% | –
C=CC(=O)N1CCN(c2nc(=O)n(-c3c(C)ccnc3C(C)C)c3nc(-c4c(O)cccc4F)c(F)cc23)C(C)C1 (centres undefined) | > 10000 nM | 79.1% and 96.4% | 91.3% and 85% | 85.2% and 93.5% | 102% and 99.9% | 105% and 99.1% | 87.9% and 86.4% | –
C=CC(=O)Nc1cc(Nc2nccc(-c3cn(C)c4ccccc34)n2)c(OC)cc1N(C)CCN(C)C | 58.3 nM and 61.8 nM | – | – | – | – | – | – | viability, T/C (compound 0.000949 µM): 71.7% and 84%; viability, T/C (compound 0.003 µM): 79.8% and 82.5%; viability, T/C (compound 0.00949 µM): 62.2% and 65.2%; viability, T/C (compound 0.03 µM): 69.3% and 61.8%; viability, T/C (compound 0.0949 µM): 36.1% and 45.5%; viability, T/C (compound 0.3 µM): 22.2% and 22.7%
CC(CO)NC(=O)c1cc(-c2ccc(Cl)cc2)nn(-c2cnn(C)c2)c1=O (centres undefined) | 8050 nM and 6340 nM | 84.8% and 86.6% | 92.3% and 81.3% | 71.5% and 73.9% | 78.2% and 76.1% | 60.9% and 59.9% | 47.1% and 42.9% | –
CC1(C)CCC(CN2CCN(c3ccc(C(=O)NS(=O)(=O)c4ccc(NCC5CCOCC5)c([N+](=O)[O-])c4)c(Oc4cnc5[nH]ccc5c4)c3)CC2)=C(c2ccc(Cl)cc2)C1 | 8810 nM and 4580 nM | 85.9% and 77.8% | 79.9% and 82.2% | 84.2% and 75.7% | 82% and 77.7% | 77.1% and 68.8% | 46.6% and 10.4% | –
CN1CCN(c2cc(C(=O)Nc3cc4cc(-c5cnn(C)c5)ccc4cn3)ccn2)CC1 | – | 80.8% [middle of 12 runs] | 54.8% [middle of 12 runs] | 22.3% [middle of 12 runs] | 1.3% [middle of 12 runs] | 0.22% [middle of 5 runs] | 0.22% [middle of 10 runs] | IC50 (compound alone, run of 08/14/2023): 116 nM [middle of 10 runs]
CNC(=O)c1ccc(Nc2nc(OC3CCCC3)c3c(-c4ccc5nc(C)oc5c4)c[nH]c3n2)c(OC)c1 | – | 86% [middle of 12 runs] | 28.1% [middle of 12 runs] | 18.9% [middle of 12 runs] | 15.9% [middle of 12 runs] | 16.8% [middle of 12 runs] | 17.5% [middle of 12 runs] | IC50 (compound alone, run of 08/15/2023): 62.5 nM [middle of 11 runs]
NC(=O)C(=Cn1cnc(-c2cc(C(F)(F)F)cc(C(F)(F)F)c2)n1)c1cncnc1 | 45.5 nM and 43.6 nM | – | – | – | – | – | – | viability, T/C (compound 0.00949 µM): 70.3% and 65.1%; viability, T/C (compound 0.03 µM): 56.4% and 61.5%; viability, T/C (compound 0.0949 µM): 37.4% and 29.3%; viability, T/C (compound 0.3 µM): 12.4% and 14%; viability, T/C (compound 0.949 µM): 5.43% and 5.85%; viability, T/C (compound 3 µM): 3.14% and 2.78%
Nc1ccccc1NC(=O)c1ccc(CNC(=O)OCc2cccnc2)cc1 | 1420 nM and 1290 nM | 90% and 75.9% | 89.8% and 91.8% | 83.1% and 73.8% | 58% and 50.5% | 29.4% and 33.5% | 9.64% and 5.66% | –
Nc1ccn(C2OC(CO)C(O)C2(F)F)c(=O)n1 (centres undefined) | < 31.6 nM | 27.6% and 25.4% | 12.5% and 15% | 10.8% and 12.3% | 10.8% and 13.3% | 8.49% and 10.3% | 6.92% and 8.69% | –
